Measured values taken from patent publication US20160296529A1, “AMINOTRIAZOLOPYRIDINE FOR USE IN THE TREATMENT OF INFLAMMATION, AND PHARMACEUTICAL COMPOSITIONS THEREOF” (priority 2012, published 2016).
Several values for one entry are separate records, joined by “and”; a condition that tells them apart may be missing. Equal values may be shown once. Read-outs that look alike come from different tables or passages of the source.

What was measured:
[1] = biological target: T1, Recombinant human JAK1 catalytic domain (Homo sapiens, UniProt P23458); test: JAK1 assay polyGT substrate; assay type: biochemical
T1 construct: amino acids 866-1154; catalog number PV4774; purchased Invitrogen PV4774
Protocol: Recombinant human JAK1 catalytic domain (amino acids 866-1154; catalog number PV4774) was purchased from Invitrogen. 25 ng of JAK1 was incubated with 6.25 μg polyGT substrate (Sigma catalog number P0275) in kinase reaction buffer (15 mM Hepes pH7.5, 0.01% Tween20, 10 mM MgCl2, 2 μM non-radioactive ATP, 0.25 μCi ^33P-gamma-ATP (Perkin Elmer, catalog number NEG602K001MC) final concentrations) with or without 5 μL containing test compound or vehicle (DMSO, 1% final concentration), in a total volume of 25 μL, in a polypropylene 96-well plate (Greiner, V-bottom). After 75 min at 30° C., reactions were stopped by adding 25 μL/well of 150 mM phosphoric acid. […] 40 μL/well of Microscint-20 was added, the top of the plates was sealed and readout was performed using the Topcount (Perkin Elmer). Kinase activity was calculated by subtracting counts per min (cpm) obtained in the presence of a positive control inhibitor (10 μM staurosporine) from cpm obtained in the presence of vehicle. The ability of a test compound to inhibit this activity was determined as:
Percentage inhibition−((cpm determined for sample with test compound present−cpm determined for sample with positive control inhibitor) divided by (cpm determined in the presence of vehicle−cpm determined for sample with positive control inhibitor))*100. […]

[2] = system: GM-CSF-induced STAT5 phosphorylation (JAK2-dependent pathway); test: Human whole blood assay (hWBA), GM-CSF stimulation, phospho-STAT5 on CD33+ cells; assay type: cell-based; settings: 7 different donors
Protocol: A flow cytometry analysis was performed to establish JAK1 over JAK2 compound selectivity ex vivo using human whole blood. Therefore, blood is taken from human volunteers who gave informed consent. Blood is then equilibrated for 30 min at 37° C. under gentle rocking, then aliquoted in Eppendorf tubes. Compound is added at different concentrations and incubated at 37° C. for 30 min under gentle rocking and subsequently stimulated for 20 min at 37° C. under gentle rocking with interleukin 6 (IL-6) for JAK1-dependent pathway stimulation or GM-CSF for JAK2-dependent pathway stimulation. Phospho-STAT1 and phospho-STAT5 are then evaluated using FACS analysis. […]
Cells were then washed once with 1×PBS and analyzed on a FACSCanto II flow cytometer (BD Biosciences).
50,000 total events were counted and Phospho-STAT5 positive cells were measured after gating on CD33^+ cells. Data were analyzed using the FACSDiva software and correspond to the percentage of inhibition of GM-CSF stimulation calculated from the percentage of positive cells for phosphor-STAT5 on CD33^+ cells.
A flow cytometry analysis was performed to establish JAK1 over JAK2 compound selectivity ex vivo using human whole blood. […] Phospho-STAT1 (for IL-6- and IFNα-stimulated cells) and phospho-STAT5 (for IL-2- and GM-CSF-stimulated cells) levels are then evaluated using FACS analysis. […]

T1 sequence (P23458 866-1154): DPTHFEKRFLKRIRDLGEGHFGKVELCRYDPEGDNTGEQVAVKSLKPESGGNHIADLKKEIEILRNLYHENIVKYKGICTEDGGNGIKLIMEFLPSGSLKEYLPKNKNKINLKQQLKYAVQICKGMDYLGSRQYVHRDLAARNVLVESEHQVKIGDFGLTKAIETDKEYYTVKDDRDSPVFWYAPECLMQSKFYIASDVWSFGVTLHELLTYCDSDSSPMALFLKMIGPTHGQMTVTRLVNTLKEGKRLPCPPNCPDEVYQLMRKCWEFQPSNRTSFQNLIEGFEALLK

IC50 ([1]; average, read-out: IC50 (average)): 0.546 µM
IC50 ([1]; individual determinations, read-out: IC50): 0.46 µM and 0.586 µM and 0.494 µM and 0.758 µM and 0.433 µM
IC50 [2]: > 100 µM
Compound: Nc1nc2cccc(-c3ccc(CN4CCS(=O)(=O)CC4)cc3)n2n1 [Formula I, 5-[4-(1,1-Dioxothiomorpholin-4-ylmethyl)-phenyl]-[1,2,4]triazolo[1,5-a]pyridin-2-ylamine]
